The source of these data is BindingDB's records for doi:10.1016/j.bmcl.2016.03.009 (Toray Industries, 2016).

Structures are written as SMILES.

The assay in a line: Agonist activity at human IP receptor in platelet rich plasma assessed as inhibition of ADP-induced platelet aggregation preincubated for 1 min followed by addition of ADP by aggregometry.
As for `O=C(O)COc1ccc(CCN(C(=O)c2ccccc2)c2ccc(Cl)cc2)cc1`, the IC50 was determined as 740 nM. The value for `O=C(O)COc1cccc(CCN(C(=O)c2ccccc2)c2ccc(Cl)cc2)c1` was above 30000 nM; that for `O=C(O)COc1ccc(CCCN(C(=O)c2ccccc2)c2ccc(Cl)cc2)cc1` was 20000 nM. The value for `O=C(O)COc1ccc(CN(C(=O)c2ccccc2)c2ccc(Cl)cc2)cc1` was above 30000 nM. The result for `O=C(O)COc1cccc2c1OCCN2CCN(C(=O)c1ccccc1)c1ccc(Cl)cc1` reads 13 nM; that for `O=C(O)COC1CCC(=CCN(C(=O)c2ccccc2)c2ccc(Cl)cc2)CC1` (stereo not given), 320 nM; that for `O=C(O)COC1CCN(CCN(C(=O)c2ccccc2)c2ccc(Cl)cc2)CC1`, 440 nM. For the compound `O=C(O)COC1CCN(CCN(C(=O)c2ccccc2)c2ccc(Cl)cc2)C1` (stereo not given), the IC50 is 23000 nM.

As for `O=C(O)COC1CCN(CCN(C(=O)c2ccccc2)c2ccccc2)CC1`, the IC50 amounted to 3200 nM. The value for `Cc1ccc(N(CCN2CCC(OCC(=O)O)CC2)C(=O)c2ccccc2)cc1` was 130 nM. The value for `COc1ccc(N(CCN2CCC(OCC(=O)O)CC2)C(=O)c2ccccc2)cc1` was 900 nM; that for `O=C(O)COC1CCN(CCN(C(=O)c2ccccc2)c2ccc(N3CCCC3)cc2)CC1` was above 1000 nM. The value for `Cc1cc(C)c(N(CCN2CCC(OCC(=O)O)CC2)C(=O)c2ccccc2)c(C)c1` was above 1000 nM. As to `Cc1ccc(N(CCN2CCC(OCC(=O)O)CC2)C(=O)c2ccccc2)c(C)c1`, the IC50 was above 1000 nM.

Regarding `Cc1cccc(N(CCN2CCC(OCC(=O)O)CC2)C(=O)c2ccccc2)c1`, the IC50 is above 1000 nM. The value for `Cc1ccccc1N(CCN1CCC(OCC(=O)O)CC1)C(=O)c1ccccc1` was above 1000 nM; that for `CC(C)c1ccc(N(CCN2CCC(OCC(=O)O)CC2)C(=O)c2ccccc2)cc1` was above 1000 nM. The result for `CCCCc1ccc(N(CCN2CCC(OCC(=O)O)CC2)C(=O)c2ccccc2)cc1` reads above 1000 nM; that for `CCCc1ccc(N(CCN2CCC(OCC(=O)O)CC2)C(=O)c2ccccc2)cc1`, 1000 nM; that for `CCc1ccc(N(CCN2CCC(OCC(=O)O)CC2)C(=O)c2ccccc2)cc1`, 430 nM.
